The assay has as its system YAP/TAZ-TEAD transcription. As to the kind of experiment: Reporter gene assay for measuring the inhibition of YAP/TAZ-TEAD transcription (TEAD-responsive element luciferase reporter in Hek293T cells). The class given is cell-based. Conditions: 24 hours incubation. An outline of the steps: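 HEK293T cells transiently transfected with a TEAD-responsive luciferase reporter were exposed to compounds for 24 h at 37° C/5% CO2, then luminescence was read. Percent inhibition normalised to vehicle (0%) and positive-control inhibitor (100%); IC50 derived.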

This is an account of results in patent publication US20240409556A1, “BENZOPIPERAZINE AND RELATED ANALOGS FOR INHIBITING YAP/TAZ-TEAD” (Springworks Therapeutics, Inc., priority 2023, published 2024).

Some results are limits rather than exact numbers.

For orientation: IC50 means the concentration that inhibits the measured activity by half. A low value points to greater potency in that assay.

For the setting “Homo sapiens, HEK-293T, 24 h”, `O=C(C1CC1)N1CCN2c3ncccc3N(c3ccc(C(F)(F)F)cc3)CC2C1` (centres unmarked) [compound 46, Cyclopropyl(5-(4-(trifluoromethyl)phenyl)-5,6,6a,7,9,10-hexahydro-8H-pyrazino[1,2-a]pyrido[3,2-e]pyrazin-8-yl)methanone] returned an IC50 below 1 µM.

Take `CC(C)C(=O)N1CCN2c3ncccc3N(c3ccc(C(F)(F)F)cc3)CC2C1` (centres unmarked) [compound 47, 2-methyl-1-(5-(4-(trifluoromethyl)phenyl)-5,6,6a,7,9,10-hexahydro-8H-pyrazino[1,2-a]pyrido[3,2-e]pyrazin-8-yl)propan-1-one]: for the setting “Homo sapiens, HEK-293T, 24 h”, the IC50 was below 1 µM.

In the case of `C=CC(=O)NCC1CN(c2ccc(C(F)(F)F)cc2)c2cccnc2O1` (centres unmarked) [compound 48, N-((1-(4-(trifluoromethyl)phenyl)-2,3-dihydro-1H-pyrido[2,3-b][1,4]oxazin-3-yl)methyl)acrylamide], the IC50 (Homo sapiens, HEK-293T, 24 h) is below 1 µM.

In the case of `CC(=O)NCC1CN(c2ccc(C(F)(F)F)cc2)c2cccnc2O1` (centres unmarked) [compound 49, N-((1-(4-(trifluoromethyl)phenyl)-2,3-dihydro-1H-pyrido[2,3-b][1,4]oxazin-3-yl)methyl)acetamide], the IC50 (Homo sapiens, HEK-293T, 24 h) is below 1 µM.

Consider `FC(F)(F)c1ccc(N2CCN(Cc3nnc[nH]3)c3ccccc32)cc1` [compound 50, 1-((4H-1,2,4-triazol-3-yl)methyl)-4-(4-(trifluoromethyl)phenyl)-1,2,3,4-tetrahydroquinoxaline], for which, for the setting “Homo sapiens, HEK-293T, 24 h”, the 50% inhibitory concentration (IC50) is below 1 µM.

As to `CNC(=O)N1CCN2c3ncccc3N(c3ccc(C(F)(F)F)cc3)CC2C1` (centres unmarked) [compound 52, N-methyl-5-(4-(trifluoromethyl)phenyl)-5,6,6a,7,9,10-hexahydro-8H-pyrazino[1,2-a]pyrido[3,2-e]pyrazine-8-carboxamide], the IC50 (Homo sapiens, HEK-293T, 24 h) was below 1 µM.

As to `CC(=O)N1CCN2c3ncccc3N(c3ccc(C(F)(F)F)cn3)CC2C1` (centres unmarked) [compound 53, 1-(5-(5-(trifluoromethyl)pyridin-2-yl)-5,6,6a,7,9,10-hexahydro-8H-pyrazino[1,2-a]pyrido[3,2-e]pyrazin-8-yl)ethan-1-one], the IC50 was below 1 µM.

For `CC(=O)N1CCN2c3ncccc3N(c3ccc(C(F)(F)F)nc3)CC2C1` (centres unmarked) [compound 54, 1-(5-(6-(trifluoromethyl)pyridin-3-yl)-5,6,6a,7,9,10-hexahydro-8H-pyrazino[1,2-a]pyrido[3,2-e]pyrazin-8-yl)ethan-1-one], under “Homo sapiens, HEK-293T, 24 h”, the IC50 was 1 to 10 µM.

`CC(=O)N1CC(N2CCN(c3ccc(C(F)(F)F)cc3)c3ccccc32)C1` [compound 56, 1-(3-(4-(4-(trifluoromethyl)phenyl)-3,4-dihydroquinoxalin-1(2H)-yl)azetidin-1-yl)ethan-1-one]: the IC50 (Homo sapiens, HEK-293T, 24 h) is below 1 µM.

Where the note is “Homo sapiens, HEK-293T, 24 h”, `CC(=O)NCCN1CCN(c2ccc(C(F)(F)F)cc2)c2ccccc21` [compound 57, N-(2-(4-(4-(trifluoromethyl)phenyl)-3,4-dihydroquinoxalin-1(2H)-yl)ethyl)acetamide] showed an IC50 below 1 µM.

As for `CC(=O)NCC1CN(c2ccc(C(F)(F)F)cc2)c2cccnc2S1(=O)=O` (centres unmarked) [compound 58, N-((4,4-dioxido-1-(4-(trifluoromethyl)phenyl)-2,3-dihydro-1H-pyrido[2,3-b][1,4]thiazin-3-yl)methyl)acetamide], the IC50 (Homo sapiens, HEK-293T, 24 h) is above 10 µM.

Where the note is “Homo sapiens, HEK-293T, 24 h”, `CC(=O)N1CC2CN(c3ccc(C(F)(F)F)cc3)c3cccnc3N2C1=O` (centres unmarked) [compound 59, 8-acetyl-5-(4-(trifluoromethyl)phenyl)-6,6a,7,8-tetrahydroimidazo[1,5-a]pyrido[3,2-e]pyrazin-9(5H)-one] displayed an IC50 above 10 µM.

For the setting “Homo sapiens, HEK-293T, 24 h”, `Cn1cncc1CN1CCN(c2ccc(C(F)(F)F)cc2)c2ccccc21` [compound 60, 1-((1-methyl-1H-imidazol-5-yl)methyl)-4-(4-(trifluoromethyl)phenyl)-1,2,3,4-tetrahydroquinoxaline] displayed an IC50 below 1 µM.

For the molecule `Cc1ncc(CN2CCN(c3ccc(C(F)(F)F)cc3)c3ccccc32)[nH]1` [compound 61, 1-((2-methyl-1H-imidazol-5-yl)methyl)-4-(4-(trifluoromethyl)phenyl)-1,2,3,4-tetrahydroquinoxaline], the IC50 (Homo sapiens, HEK-293T, 24 h) is below 1 µM.

Where the note is “Homo sapiens, HEK-293T, 24 h”, `FC(F)(F)c1ccc(N2CCN(Cc3ncc[nH]3)c3ccccc32)cc1` [compound 62, 1-((1H-imidazol-2-yl)methyl)-4-(4-(trifluoromethyl)phenyl)-1,2,3,4-tetrahydroquinoxaline] came in with an IC50 below 1 µM.

Regarding `FC(F)(F)c1ccc(N2CCN(Cc3cccnc3)c3ccccc32)cc1` [compound 64, 1-(pyridin-3-ylmethyl)-4-(4-(trifluoromethyl)phenyl)-1,2,3,4-tetrahydroquinoxaline], the IC50 (Homo sapiens, HEK-293T, 24 h) is 1 to 10 µM.

As to `Cc1nc[nH]c1CN1CCN(c2ccc(C(F)(F)F)cc2)c2ccccc21` [compound 66, 1-((4-methyl-1H-imidazol-5-yl)methyl)-4-(4-(trifluoromethyl)phenyl)-1,2,3,4-tetrahydroquinoxaline], the IC50 (Homo sapiens, HEK-293T, 24 h) was below 1 µM.

For the molecule `FC(F)(F)c1ccc(N2CCN(Cc3cnco3)c3ccccc32)cc1` [compound 67, 5-((4-(4-(trifluoromethyl)phenyl)-3,4-dihydroquinoxalin-1(2H)-yl)methyl)oxazole], under “Homo sapiens, HEK-293T, 24 h”, the IC50 was below 1 µM.

Take `O=S1(=O)CCN2c3ncccc3N(c3ccc(C(F)(F)F)cc3)CC2C1` (centres unmarked) [compound 68, 5-(4-(trifluoromethyl)phenyl)-5,6,6a,7,9,10-hexahydropyrido[3′,2′:5,6]pyrazino[2,1-c][1,4]thiazine 8,8-dioxide]: the IC50 (Homo sapiens, HEK-293T, 24 h) is 1 to 10 µM.

`FC(F)(F)c1ccc(N2CCN(Cc3ccno3)c3ccccc32)cc1` [compound 69, 5-((4-(4-(trifluoromethyl)phenyl)-3,4-dihydroquinoxalin-1(2H)-yl)methyl)isoxazole] had an IC50 (Homo sapiens, HEK-293T, 24 h) above 10 µM.

As for `CS(=O)(=O)N1CCN2C(=O)CN(c3ccc(C(F)(F)F)cc3)CC2C1` (centres unmarked) [compound 71, 8-(methylsulfonyl)-2-(4-(trifluoromethyl)phenyl)octahydro-4H-pyrazino[1,2-a]pyrazin-4-one], the IC50 (Homo sapiens, HEK-293T, 24 h) is above 10 µM.

For the molecule `CNS(=O)(=O)N1CCN2C(=O)CN(c3ccc(C(F)(F)F)cc3)CC2C1` (centres unmarked) [compound 72, N-methyl-6-oxo-8-(4-(trifluoromethyl)phenyl)octahydro-2H-pyrazino[1,2-a]pyrazine-2-sulfonamide], where the note is “Homo sapiens, HEK-293T, 24 h”, the IC50 is above 10 µM.

In turn, `COc1ccc2c(n1)OC(CNC(C)=O)CN2c1ccc(C(F)(F)F)cc1` (centres unmarked) [compound 73, N-((6-methoxy-1-(4-(trifluoromethyl)phenyl)-2,3-dihydro-1H-pyrido[2,3-b][1,4]oxazin-3-yl)methyl)acetamide] displayed an IC50 below 1 µM.

For the setting “Homo sapiens, HEK-293T, 24 h”, `O=C(c1cn[nH]c1)N1CCN(c2ccc(C(F)(F)F)cc2)c2ccccc21` [compound 74, (1H-pyrazol-4-yl)(4-(4-(trifluoromethyl)phenyl)-3,4-dihydroquinoxalin-1(2H)-yl)methanone] registered an IC50 below 1 µM.

The molecule `CC(=O)NCC1CN(c2ccc(C(F)(F)F)cc2)c2cc(Cl)cnc2O1` (centres unmarked) [compound 75, N-((7-chloro-1-(4-(trifluoromethyl)phenyl)-2,3-dihydro-1H-pyrido[2,3-b][1,4]oxazin-3-yl)methyl)acetamide] came in with an IC50 below 1 µM.

In turn, `CC(=O)NCC1CN(c2ccc(C(F)(F)F)cc2)c2ccc(C(F)(F)F)nc2O1` (centres unmarked) [compound 76, N-((6-(trifluoromethyl)-1-(4-(trifluoromethyl)phenyl)-2,3-dihydro-1H-pyrido[2,3-b][1,4]oxazin-3-yl)methyl)acetamide] showed a half-inhibitory concentration (IC50) (Homo sapiens, HEK-293T, 24 h) of 1 to 10 µM.

Turning to `CC(=O)NCC1CN(c2ccc(C(F)(F)F)cc2)c2ccc(C)nc2O1` (centres unmarked) [compound 77, N-((6-methyl-1-(4-(trifluoromethyl)phenyl)-2,3-dihydro-1H-pyrido[2,3-b][1,4]oxazin-3-yl)methyl)acetamide], the IC50 (Homo sapiens, HEK-293T, 24 h) was below 1 µM.

Consider `CC(=O)NCC1CN(c2ccc(C(F)(F)F)cn2)c2cccnc2O1` (centres unmarked) [compound 78, N-((1-(5-(trifluoromethyl)pyridin-2-yl)-2,3-dihydro-1H-pyrido[2,3-b][1,4]oxazin-3-yl)methyl)acetamide], for which, where the note is “Homo sapiens, HEK-293T, 24 h”, the IC50 is 1 to 10 µM.

Take `CC(=O)N1CC(=O)N2c3ccccc3N(c3ccc(C(F)(F)F)cc3)CC2C1` (centres unmarked) [compound 79]: the IC50 was below 1 µM.

For the setting “Homo sapiens, HEK-293T, 24 h”, `O=C1CN(c2ccc(C(F)(F)F)cc2)c2ccccc2N1Cc1cn[nH]c1` [compound 80, 1-((1H-pyrazol-4-yl)methyl)-4-(4-(trifluoromethyl)phenyl)-3,4-dihydroquinoxalin-2(1H)-one] had an IC50 below 1 µM.

`CC(=O)NCC1CN(c2ccc(C(F)(F)F)cc2)c2ccc(C3CC3)nc2O1` (centres unmarked) [compound 81, N-((6-cyclopropyl-1-(4-(trifluoromethyl)phenyl)-2,3-dihydro-1H-pyrido[2,3-b][1,4]oxazin-3-yl)methyl)acetamide] registered an IC50 below 1 µM.

The molecule `CCc1ccc2c(n1)OC(CNC(C)=O)CN2c1ccc(C(F)(F)F)cc1` (centres unmarked) [compound 82, N-((6-ethyl-1-(4-(trifluoromethyl)phenyl)-2,3-dihydro-1H-pyrido[2,3-b][1,4]oxazin-3-yl)methyl)acetamide] came in with an IC50 (Homo sapiens, HEK-293T, 24 h) below 1 µM.

Molecule `COC(=O)N[C@@H]1C[C@@H]2CN(c3ccc(C(F)(F)F)cc3)c3cccnc3N2C1` [compound 83, methyl ((6aR,8R)-5-(4-(trifluoromethyl)phenyl)-5,6,6a,7,8,9-hexahydropyrido[3,2-e]pyrrolo[1,2-a]pyrazin-8-yl)carbamate] yielded an IC50 (Homo sapiens, HEK-293T, 24 h) below 1 µM.

Under “Homo sapiens, HEK-293T, 24 h”, `CNC(=O)N[C@@H]1C[C@@H]2CN(c3ccc(C(F)(F)F)cc3)c3cccnc3N2C1` [compound 84, 1-methyl-3-((6aR,8R)-5-(4-(trifluoromethyl)phenyl)-5,6,6a,7,8,9-hexahydropyrido[3,2-e]pyrrolo[1,2-a]pyrazin-8-yl)urea] displayed an IC50 below 1 µM.

`CC(=O)NCC1CN(c2ccc(C(F)(F)F)cc2)c2ccc(N(C)C)nc2O1` (centres unmarked) [compound 87, N-((6-(dimethylamino)-1-(4-(trifluoromethyl)phenyl)-2,3-dihydro-1H-pyrido[2,3-b][1,4]oxazin-3-yl)methyl)acetamide]: the IC50 (Homo sapiens, HEK-293T, 24 h) was below 1 µM.
